Test results: ChEMBL document CHEMBL6127050, “Simultaneous inhibition of FLT3 and HDAC by novel 6-ethylpyrazine-2-Carboxamide derivatives provides therapeutic advantages in acute myelocytic leukemia” (Eur J Med Chem, 2024)
Active and inactive are the calls of the source. The calls are words filed in the database; no cut-off is given here.

Key:
[1] = Toxicity in NOD/SCID mouse xenografted with human MOLM-13 cells assessed as increase in survival rate at 60 mg/kg, IG administered 5 days per week in presence of gilteritinib by Kaplan Mayer survival analysis; type: organism-based; conditions: in vivo, po, 120 h, time 5 day
[2] = Cytotoxicity against HEK293T cells incubated for 48 hrs; type: toxicity, cell-based, HEK-293T; conditions: human
MOLM-13 [3] = test: Induction of apoptosis in human MOLM-13 cells assessed as viable cells at 0.1 uM incubated for 48 hrs by Annexin V-FITC staining based flow cytometry analysis (reference value: 94.5 %); type: functional
MOLM-13 [4] = test: Induction of apoptosis in human MOLM-13 cells assessed as early apoptotic cells at 0.1 uM incubated for 48 hrs by Annexin V-FITC staining based flow cytometry analysis (reference value: 4.07 %); type: functional
MOLM-13 [5] = test: Induction of apoptosis in human MOLM-13 cells assessed as late apoptotic cells at 0.1 uM incubated for 48 hrs by Annexin V-FITC staining based flow cytometry analysis (reference value: 1.40 %); type: functional
MOLM-13 [6] = test: Induction of apoptosis in human MOLM-13 cells assessed as necrotic at 0.1 uM incubated for 48 hrs by Annexin V-FITC staining based flow cytometry analysis (reference value: 0.013 %); type: functional
MOLM-13 [7] = test: Induction of apoptosis in human MOLM-13 cells assessed as viable cells at 0.1 uM incubated for 48 hrs in presence of gilteritinib by Annexin V-FITC staining based flow cytometry analysis (reference value: 94.5 %); type: functional
MOLM-13 [8] = test: Induction of apoptosis in human MOLM-13 cells assessed as early apoptotic cells at 0.1 uM incubated for 48 hrs in presence of gilteritinib by Annexin V-FITC staining based flow cytometry analysis (reference value: 4.07 %); type: functional
MOLM-13 [9] = test: Induction of apoptosis in human MOLM-13 cells assessed as late apoptotic cells at 0.1 uM incubated for 48 hrs in presence of gilteritinib by Annexin V-FITC staining based flow cytometry analysis (reference value: 1.40 %); type: functional
MOLM-13 [10] = test: Induction of apoptosis in human MOLM-13 cells assessed as necrotic cells at 0.1 uM incubated for 48 hrs in presence of gilteritinib by Annexin V-FITC staining based flow cytometry analysis (reference value: 0.013 %); type: functional
MOLM-13 [11] = test: Induction of cell cycle arrest in human MOLM-13 cells assessed as accumulation of cells at G0/G1 phase at 0.05 uM measured for 48 hrs by PI/RNase staining based flow cytometric analysis (reference value: 46.24 %); type: functional
MOLM-13 [12] = test: Induction of cell cycle arrest in human MOLM-13 cells assessed as accumulation of cells at G2M phase at 0.05 uM measured for 48 hrs by PI/RNase staining based flow cytometric analysis (reference value: 10.81%); type: functional
MOLM-13 [13] = test: Induction of cell cycle arrest in human MOLM-13 cells assessed as accumulation of cells at S-phase at 0.05 uM measured for 48 hrs by PI/RNase staining based flow cytometric analysis (reference value: 42.95%); type: functional
MOLM-13 [14] = test: Induction of cell cycle arrest in human MOLM-13 cells assessed as accumulation of cells at G0/G1 phase at 0.05 uM measured for 48 hrs in presence of gilteritinib by PI/RNase staining based flow cytometric analysis (reference value: 46.24 %); type: functional
MOLM-13 [15] = test: Induction of cell cycle arrest in human MOLM-13 cells assessed as accumulation of cells at G2M phase at 0.05 uM measured for 48 hrs in presence of gilteritinib by PI/RNase staining based flow cytometric analysis (reference value: 10.81%); type: functional
MOLM-13 [16] = test: Induction of cell cycle arrest in human MOLM-13 cells assessed as accumulation of cells at S-phase at 0.05 uM measured for 48 hrs in presence of gilteritinib by PI/RNase staining based flow cytometric analysis (reference value: 42.95%); type: functional
[17] = Toxicity in BALB/c mouse xenografted with human MOLM-13 cells assessed as body weight loss at 30 mg/kg, IG qd administered 5 days a week and measured on day 9 in presence of gilteritinib; type: organism-based; conditions: in vivo, po, 216 h, time 9 day
[18] = Toxicity in BALB/c mouse xenografted with human MOLM-13 cells assessed as lung damage at 30 mg/kg, IG qd administered 5 days a week and measured on day 9 in presence of gilteritinib by H and E staining based analysis; type: organism-based; conditions: in vivo, po, 216 h, time 9 day
[19] = biological target: T1, Receptor-type tyrosine-protein kinase FLT3 (Homo sapiens, UniProt P36888); test: Inhibition of FLT3 (unknown origin) incubated for 40 mins in presence of ATP by kinase-glo plus luminescence assay
T1 sequence (P36888 whole entry): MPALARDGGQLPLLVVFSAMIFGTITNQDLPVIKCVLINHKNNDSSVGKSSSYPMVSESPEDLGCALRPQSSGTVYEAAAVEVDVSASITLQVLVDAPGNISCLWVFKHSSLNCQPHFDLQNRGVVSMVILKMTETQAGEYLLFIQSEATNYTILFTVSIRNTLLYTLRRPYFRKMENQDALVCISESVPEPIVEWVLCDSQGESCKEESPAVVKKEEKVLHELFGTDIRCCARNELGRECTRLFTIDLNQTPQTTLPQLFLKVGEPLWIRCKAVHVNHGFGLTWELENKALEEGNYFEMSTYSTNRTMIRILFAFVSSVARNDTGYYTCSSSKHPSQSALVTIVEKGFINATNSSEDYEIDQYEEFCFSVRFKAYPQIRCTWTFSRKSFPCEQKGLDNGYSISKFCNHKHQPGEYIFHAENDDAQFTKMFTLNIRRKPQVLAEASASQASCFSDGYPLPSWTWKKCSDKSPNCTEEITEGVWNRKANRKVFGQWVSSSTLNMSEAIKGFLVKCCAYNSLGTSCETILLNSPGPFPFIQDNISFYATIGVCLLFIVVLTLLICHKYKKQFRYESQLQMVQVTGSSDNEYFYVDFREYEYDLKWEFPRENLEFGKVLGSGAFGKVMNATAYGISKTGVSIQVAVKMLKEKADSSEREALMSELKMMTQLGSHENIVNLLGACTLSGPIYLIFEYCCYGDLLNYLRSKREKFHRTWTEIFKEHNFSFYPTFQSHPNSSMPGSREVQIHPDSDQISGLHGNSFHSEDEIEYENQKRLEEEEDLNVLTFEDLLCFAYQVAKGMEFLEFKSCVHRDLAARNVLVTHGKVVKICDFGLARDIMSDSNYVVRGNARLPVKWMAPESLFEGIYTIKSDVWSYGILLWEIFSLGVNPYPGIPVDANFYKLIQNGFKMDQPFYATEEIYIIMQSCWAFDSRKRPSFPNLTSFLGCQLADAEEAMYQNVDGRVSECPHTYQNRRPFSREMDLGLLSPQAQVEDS

MOLM-13 [20] = test: Antiproliferative activity against human MOLM-13 cells incubated for 48 hrs; conditions: MOLM-13, 48 h
KG-1 = test: Antiproliferative activity against human KG-1 cells incubated for 48 hrs; conditions: KG-1, 48 h
THP-1 = test: Antiproliferative activity against human THP-1 cells incubated for 48 hrs; conditions: THP-1, 48 h
K562 = test: Antiproliferative activity against human K562 cells incubated for 48 hrs; conditions: K562, 48 h
[21] = biological target: Receptor-type tyrosine-protein kinase FLT3 (Homo sapiens) (UniProt P36888); test: Inhibition of FLT3 phosphorylation in human MOLM-13 cells at 0.001 to 0.1 microM by Western blot analysis; type: cell-based; conditions: dose 0.001-0.1 µM
MOLM-13 [22] = test: Inhibition of STAT5 phosphorylation in human MOLM-13 cells at 0.01 to 0.1 microM by Western blot analysis; type: cell-based; conditions: dose 0.01-0.1 µM
MOLM-13 [23] = test: Inhibition of ERK1/2 phosphorylation in human MOLM-13 cells at 0.01 to 0.1 microM by Western blot analysis; type: cell-based; conditions: dose 0.01-0.1 µM
MOLM-13 [24] = test: Inhibition of ERK1/2 phosphorylation in human MOLM-13 cells at 0.1 microM by Western blot analysis; type: cell-based
MOLM-13 [25] = test: Induction of apoptosis in human MOLM-13 cells assessed as caspase-3 activation; type: functional, cell-based; conditions: dose 0.1 µM
Mitochondrial membrane = test: Induction of mitochondrial membrane potential depolarization in human MOLM-13 cells; type: cell membranes; conditions: dose 0.1 µM
[26] = Metabolic stability in mouse liver microsome incubated upto 120 mins in presence of NADPH by HPLC analysis; type: ADME; conditions: microsomes, 2 h
[27] = Stability in mouse plasma incubated upto 24 hrs by HPLC analysis; type: ADME, cell-free
MOLM-13 [28] = test: Antitumor activity against human MOLM-13 cells xenografted BALB/c mouse assessed as reduction in tumor volume at 10 mg/kg, IG qd administered 5 days a week and measured on day 9; type: functional, organism-based; conditions: time 9.0 day
MOLM-13 [29] = test: Antitumor activity against human MOLM-13 cells xenografted BALB/c mouse assessed as tumor growth inhibition at 10 mg/kg, IG qd administered 5 days a week and measured on day 9; type: functional; conditions: MOLM-13, po, 216 h, time 9 day, read-out: TGI
[30] = Toxicity in BALB/c mouse xenografted with human MOLM-13 cells assessed as body weight loss at 10 mg/kg, IG qd administered 5 days a week and measured on day 9; type: organism-based; conditions: in vivo, po, 216 h, time 9 day
[31] = Toxicity in BALB/c mouse xenografted with human MOLM-13 cells assessed as lung damage at 10 mg/kg, IG qd administered 5 days a week and measured on day 9 by H and E staining based analysis; type: organism-based; conditions: in vivo, po, 216 h, time 9 day
[32] = Toxicity in BALB/c mouse xenografted with human MOLM-13 cells assessed as kidney damage at 10 mg/kg, IG qd administered 5 days a week and measured on day 9 by H and E staining based analysis; type: organism-based; conditions: in vivo, po, 216 h, time 9 day

SMILES: O=C(CCCCCCC(=O)Nc1ccccc1)NO [VORINOSTAT]
- Activity [1]: Non-Toxic
- IC50 at 48 h [2]: 2210 nM
- Activity (MOLM-13 [3]): 83%
- Activity (MOLM-13 [4]): 14.8%
- Activity (MOLM-13 [5]): 2.01%
- Activity (MOLM-13 [6]): 0.18%
- Activity (MOLM-13 [7]): 46.8%
- Activity (MOLM-13 [8]): 35%
- Activity (MOLM-13 [9]): 17.4%
- Activity (MOLM-13 [10]): 0.88%
- Activity (MOLM-13 [11]): 49.16%
- Activity (MOLM-13 [12]): 7.58%
- Activity (MOLM-13 [13]): 43.26%
- Activity (MOLM-13 [14]): 64.51%
- Activity (MOLM-13 [15]): 7.24%
- Activity (MOLM-13 [16]): 28.26%
- Activity [17]: Non-Toxic
- Activity [18]: Non-Toxic

SMILES: CCc1nc(C(N)=O)c(Nc2ccc(N3CCN(CCCCCCCC(=O)NO)CC3)c(OC)c2)nc1NC1CCOCC1
- IC50 [19]: 0.6 nM
- IC50 (MOLM-13 [20]): 8 nM
- IC50 (KG-1): 660 nM
- IC50 (THP-1): 650 nM
- IC50 (K562): 490 nM
- IC50 at 48 h [2]: 3050 nM
- inhibition [21]: Active
- inhibition (MOLM-13 [22]): Active
- inhibition (MOLM-13 [23]): Active
- inhibition (MOLM-13 [24]): Active
- viability at 0.1 µM (MOLM-13 [3]; Homo sapiens, MOLM-13, read-out: Activity): 39.4%
- Activity (MOLM-13 [4]): 43.5%
- Activity (MOLM-13 [5]): 16.6%
- Activity (MOLM-13 [6]): 0.54%
- Activity (MOLM-13 [25]): Dose-Dependent Effect
- Activity (Mitochondrial membrane): Dose-Dependent Effect
- Activity (MOLM-13 [11]): 75.85%
- Activity (MOLM-13 [12]): 4.12%
- Activity (MOLM-13 [13]): 20.04%
- Stability [26]: Stable
- Stability [27]: Stable
- Activity (MOLM-13 [28]): Active
- inhibition in vivo at 10 mg/kg (MOLM-13 [29]): 65.3%
- Activity [30]: Non-Toxic
- Activity [31]: Non-Toxic
- Activity [32]: Non-Toxic
